ChEMBL document CHEMBL5154848, “Synthesis of heterocyclic ring-fused analogs of HMG499 as novel degraders of HMG-CoA reductase that lower cholesterol” (Eur J Med Chem, 2022)
Activity calls are given as the source filed them. The rule behind the calls is not given here.

What was measured:
CHO-K1 = experiment: Downregulation of lovastatin-induced HMGCR expression in CHO-K1 cells incubated for 16 hrs by immunoblot analysis; assay type: functional, cell-based; details: Cricetulus griseus, dose 1-10 µM, DDE = dose-dependent effect
LX-2 [1] = experiment: Downregulation of TGF-beta-1-induced TGF-beta-1 mRNA levels in serum starved human LX2 cells pretreated with TGF-beta-1 for 6 hrs followed by compound treatment for 24 hrs by SYBR green dye based qRT-PCR analysis; assay type: functional, cell-based; details: dose <= 2.0 µM, DDE = dose-dependent effect
[2] = Downregulation of lovastatin-induced HMGCR expression in CHO-K1 cells assessed as fold change in HMGCR expression at 1 uM incubated for 16 hrs by immunoblot analysis (reference value: 15.2); assay type: functional, Cricetulus griseus
LX-2 [3] = experiment: Antiproliferative activity against human LX2 cells assessed as reduction of TGF-beta1 induced proliferation by CCK-8 assay; assay type: functional, cell-based; details: DDE = dose-dependent effect
[4] = Downregulation of HMGCR expression in CHO-K1 cells assessed as fold change in HMGCR expression at 10 uM incubated for 16 hrs by immunoblot analysis (reference value: 1.0); assay type: functional, Cricetulus griseus
RAW264.7 [5] = experiment: Downregulation of LPS-stimulated cholesterol levels in mouse RAW264.7 cells pretreated with LPS for 2 hrs followed by compound treatment for 24 hrs; assay type: functional, cell-based; details: dose <= 2.0 µM, DDE = dose-dependent effect
LX-2 [6] = experiment: Downregulation of TGF-beta-1-induced alpha-SMA mRNA levels in serum starved human LX2 cells pretreated with TGF-beta-1 for 6 hrs followed by compound treatment for 24 hrs by SYBR green dye based qRT-PCR analysis; assay type: functional, cell-based; details: dose <= 2.0 µM, DDE = dose-dependent effect
[7] = biological target: T1, 3-hydroxy-3-methylglutaryl-coenzyme A reductase (Cricetulus griseus, UniProt P00347); experiment: Induction of degradation of hamster HMGCR (TM1-8)-GFP (1 to 346 residues) transfected in CHO-7 cells incubated for 16 hrs in sterol-depleted medium by fluorescence based microplate reader assay; assay type: cell-based
T1 sequence (P00347 whole entry): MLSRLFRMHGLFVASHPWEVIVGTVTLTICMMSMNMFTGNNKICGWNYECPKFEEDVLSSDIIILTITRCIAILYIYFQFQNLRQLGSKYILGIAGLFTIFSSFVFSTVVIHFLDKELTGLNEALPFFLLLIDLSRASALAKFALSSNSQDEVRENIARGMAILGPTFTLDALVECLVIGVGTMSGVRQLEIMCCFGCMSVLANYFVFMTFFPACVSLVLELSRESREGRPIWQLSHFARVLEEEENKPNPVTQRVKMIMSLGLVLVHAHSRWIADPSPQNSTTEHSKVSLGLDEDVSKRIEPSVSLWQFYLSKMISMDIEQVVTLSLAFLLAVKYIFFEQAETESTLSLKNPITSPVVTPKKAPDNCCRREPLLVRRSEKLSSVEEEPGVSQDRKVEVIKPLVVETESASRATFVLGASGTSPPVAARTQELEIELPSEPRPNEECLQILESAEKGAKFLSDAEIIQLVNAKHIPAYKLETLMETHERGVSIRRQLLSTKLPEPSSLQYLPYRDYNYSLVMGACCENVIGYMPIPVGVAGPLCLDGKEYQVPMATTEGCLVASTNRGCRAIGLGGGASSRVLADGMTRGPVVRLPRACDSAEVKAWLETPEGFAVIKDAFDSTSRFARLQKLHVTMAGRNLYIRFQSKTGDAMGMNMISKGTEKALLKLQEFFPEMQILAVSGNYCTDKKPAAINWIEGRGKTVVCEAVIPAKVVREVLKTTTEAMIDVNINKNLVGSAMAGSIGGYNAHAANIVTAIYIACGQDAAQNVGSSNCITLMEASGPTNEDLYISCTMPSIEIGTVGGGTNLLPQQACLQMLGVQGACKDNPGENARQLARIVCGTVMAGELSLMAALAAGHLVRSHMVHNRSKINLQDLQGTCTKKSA

[8] = biological target: T2, 3-hydroxy-3-methylglutaryl-coenzyme A reductase (Homo sapiens) (UniProt P04035); experiment: Induction of HMGCR-T7 (unknown origin) degradation transfected in CHO-K1 cells assessed as HMGCR ubiquitination preincubated in sterol-depleted medium for 16 hrs followed by compound addition and measured after 4 hrs in presence of MG-132 by immuno-precipicitation analysis; assay type: cell-based; details: DDE = dose-dependent effect
T2 sequence (whole entry): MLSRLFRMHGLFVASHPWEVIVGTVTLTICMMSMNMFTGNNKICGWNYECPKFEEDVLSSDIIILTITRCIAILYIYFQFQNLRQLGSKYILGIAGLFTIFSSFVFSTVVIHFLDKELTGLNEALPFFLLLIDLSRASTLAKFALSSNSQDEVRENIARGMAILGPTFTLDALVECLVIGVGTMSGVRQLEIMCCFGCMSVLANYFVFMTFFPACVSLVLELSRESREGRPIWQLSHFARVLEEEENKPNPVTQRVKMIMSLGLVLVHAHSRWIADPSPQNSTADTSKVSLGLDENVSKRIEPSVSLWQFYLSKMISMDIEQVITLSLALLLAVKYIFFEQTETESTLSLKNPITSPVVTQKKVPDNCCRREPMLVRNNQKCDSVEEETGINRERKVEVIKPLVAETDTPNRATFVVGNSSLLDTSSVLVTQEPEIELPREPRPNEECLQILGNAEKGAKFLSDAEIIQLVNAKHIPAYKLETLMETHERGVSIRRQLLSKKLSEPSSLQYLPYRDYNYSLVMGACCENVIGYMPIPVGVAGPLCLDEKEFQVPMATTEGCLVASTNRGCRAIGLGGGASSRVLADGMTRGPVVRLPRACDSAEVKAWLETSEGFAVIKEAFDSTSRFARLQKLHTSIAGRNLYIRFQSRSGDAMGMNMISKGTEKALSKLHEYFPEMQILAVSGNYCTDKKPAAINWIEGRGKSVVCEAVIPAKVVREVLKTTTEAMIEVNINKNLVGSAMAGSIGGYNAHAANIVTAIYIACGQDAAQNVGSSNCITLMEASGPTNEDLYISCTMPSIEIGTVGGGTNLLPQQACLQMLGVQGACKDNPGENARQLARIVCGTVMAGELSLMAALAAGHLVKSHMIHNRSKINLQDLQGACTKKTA

RAW264.7 [9] = experiment: Downregulation of LPS-stimulated TNF-alpha mRNA levels in mouse RAW264.7 cells pretreated with LPS for 2 hrs followed by compound treatment for 24 hrs by SYBR green dye based qRT-PCR analysis; assay type: functional, cell-based; details: dose <= 2.0 µM, DDE = dose-dependent effect
[10] = Downregulation of lovastatin-induced HMGCR expression in CHO-K1 cells assessed as fold change in HMGCR expression at 10 uM incubated for 16 hrs by immunoblot analysis (reference value: 15.2); assay type: functional, Cricetulus griseus
[11] = Downregulation of lovastatin-induced HMGCR expression in CHO-K1 cells assessed as fold change in HMGCR expression at 3 uM incubated for 16 hrs by immunoblot analysis (reference value: 15.2); assay type: functional, Cricetulus griseus
CHO-7 = experiment: Growth inhibition of CHO-7 cells at 0.3 to 10 uM cultured for 7 days in sterol depleted medium in the absence of cholesterol and measured on day 8 by crystal violet staining based microscopic analysis; assay type: functional, cell-based; details: Cricetulus griseus, dose 0.3-10 µM, time 8.0 day
RAW264.7 [12] = experiment: Downregulation of LPS-stimulated IL-1-beta mRNA levels in mouse RAW264.7 cells pretreated with LPS for 2 hrs followed by compound treatment for 24 hrs by SYBR green dye based qRT-PCR analysis; assay type: functional, cell-based; details: dose <= 2.0 µM, DDE = dose-dependent effect

EC50 [7]: 220 nM
Activity [8]: Dde
Compound: CC(=O)n1ncc2c1C(C)(C)C1=CC[C@H]3[C@@H]4CC[C@H]([C@H](C)CCC(=O)N5CCOCC5)[C@@]4(C)CC[C@@H]3[C@@]1(C)C2
Activity (CHO-K1): Dde
Activity (LX-2 [1]): Dde
fold change (FC) [2]: 2.4
Activity (LX-2 [3]): Dde
fold change (FC) [4]: 0.1
Activity (RAW264.7 [5]): Dde
Activity (LX-2 [6]): Dde
Activity (RAW264.7 [9]): Dde
fold change (FC) [10]: 0.4
fold change (FC) [11]: 1
inhibition (CHO-7): Active
Activity (RAW264.7 [12]): Dde
